# Reference: patent publication US6881825B1, “Identication of peptides that facilitate uptake and cytoplasmic and/or nuclear transport of proteins, DNA and virues” (University of Pittsburgh of The Commonwealth System of …, priority 1999, dated 2005)
# Entries after “also recorded” stand apart in the source; their conditions may differ. Where no end group is shown, it is not given here.
# Experiments:
# HIG82 cells = test: Cell viability by MTT assay (OD 570 nm); type: cell-based, rabbit; conditions: HIG-82 cells; 100-3.1 μM peptide, three hours; FIG. 14, 15
# Experimental: 2×10^5 cells (HIG82, MCA205 or Jurkatt) were seeded into 24 well plates. Forty-eight hours later, 100 μM, 50 μM, 25 μM, 6.25 μM and 3.1 μM of the either the death peptide (SEQ ID NO:24), peptide 5 alone (SEQ ID NO:5) or the apoptotic peptide alone (SEQ ID NO:23) was added to the cells. To check for cell viability, three hours later, the media was aspirated and 1 ml of scrum-free media containing 0.25 mg of MTT was added to each well and incubated for 4 hours at 37° C. MTT-containing media was then removed and 1 ml of absolute isopropanol containing 0.4N HCl was added. Photographs were taken of the plates, then the cells were harvested and any debris was centrifuged. OD as taken at λ=570 nm. Each sample point was performed in triplicate.
# [1] = tested on: arthritic rabbit knee joints; test: IL-1-induced arthritis, intra-articular peptide, TUNEL/histology and lavage white blood cells; type: in vivo; conditions: arthritic rabbit knees; FIG. 18
# Experimental: In addition, the death peptide was administered to rabbits with IL-1-induced arthritis (see Ghivizzani et al. J. Immunol. 159:3604 (1997)). Three arthritic rabbits received the death peptide, three received peptide 5 alone and 3 received the apoptotic protein alone. The rabbits were sacrificed 24 or 72 hours post-injection of the peptides and the rabbit knee capsules were removed for histology analysis and TUNEL staining.
# MCA205 fibrosarcomas = test: TUNEL and H&E staining of treated MCA205 fibrosarcomas; type: in vivo, C57BL/6 mice; conditions: 11 days daily treatment, sacrificed three hours after last injection; FIG. 16C
# Experimental: (§1) To determine whether the death peptide could induce apoptosis in tumor cells and inhibit tumor growth in vivo, C57BL/6 mice bearing day 7 tumors in each […] (seeded with 1×10^5 MCA205 cells) were injected daily for 10 days with a 50 μl volume of 1 mM death peptide (SEQ ID NO:24; DP1) or the apoptotic peptide alone (SEQ ID NO:23; KLA) or a saline mock into both tumors. Five mice were used in each group. Tumor volume was estimated by multiplying maximum length×width^2. Separately, C57BL/6 with single, day 12 tumors were injected with 1 mM death peptide (SEQ ID NO:24; DP1), apoptotic peptide alone (SEQ ID NO:23; KLA) or saline for eleven days. Ten mice comprised each group. On the final day, the mice were injected with the appropriate saline or peptide solution and sacrificed 3 hours post-injection. Tumors were paraffin-embedded, sectioned, and stained for TUNEL and counterstained with methyl green or stained with hematoxylin and eosin to reveal histologic architecture.
# To test whether apoptosis was the mechanism of tumor killing in vivo and to study the effects of death peptide administration on tumor architecture, fibrosarcomas treated daily for 11 days with death peptide (SEQ ID NO:24; DP1), apoptotic peptide alone (SEQ ID NO:23, KLA) or tris buffered saline (TBS) were injected with 50 μl of 1 mM DP1, KLA or TBS on the eleventh day and sacrificed three hours later. […]
# MCA 205 tumor cells = test: Intra-tumoral injection of peptide-β-gal complex, X-gal staining of tumor; type: in vivo, mouse; conditions: day 14 subcutaneous MCA-205 tumors, single intra-tumoral injection
# Experimental: (§2) Peptide 5 (SEQ ID NO:5) was able to facilitate uptake of β-gal in nearly 100% of the synovial cells in vivo (FIG. 4B).
# To make the nucleic acid encoding the peptide-eGFP fusion depicted in FIG. 9A, PCR was employed using 5′ and 3′ primers that encoded the peptide and a his tag, respectively, and had complimentary sequences to eGFP DNA coding sequences. […] MCA 205 tumor cells (5×10^5 cells) were injected subcutaneously into the flank of a C57/BL6 mouse. At day 14, a single intra-tumoral injection of the peptide β-gal complex was performed. The mice were sacrificed 3 hours post-injection and the tumor tissue was isolated, sectioned and stained with X-gal.
# [2] = tested on: rabbit synovial fibroblasts; test: Internalization of Cy3-labeled peptide/M13 phage complex; type: cell-based; conditions: FIG. 13D vs control phage
# Excerpt: Therefore, the peptides of the present invention are useful for facilitating the internalization of virus and viral vectors.
# Hig-82 cells [3] = test: Peptide-β-gal complex internalization, X-gal staining; type: cell-based, rabbit
# Experimental: (§3) Internalizing peptides 1-6 (SEQ ID Nos:1-6 respectively), which were identified as described above in Example 3, were synthesized, and biotinylated (synthesis and biotinylation performed by the Biotech Center of the University of Pittsburgh). The biotinylated peptides were then conjugated to avidin β-gal or avidin Cy3 at room temperature for 2 hours.
# (§4) The peptide conjugates were then added to cells (Hig-82 cells, rabbit synovial cells, human synovial cells, rabbit synovial lining, human primary airway cells HBE 144, human primary islet cells, murine myoblast cells C2C12, dog kidney epithelial cells MDCK, murine fibroblast cells NIH3T3 and murine tumor cells MCA 205 (human synovial cells and human primary airway cells (HBE144) were isolated from patients from the Presbyterian Hospital, University of Pittsburgh by standard techniques for establishing a primary cell culture; human islet cells were provided by the University of Miami and were isolated by standard techniques for establishing a primary cell culture; C2C12, MDCK, 3T3 and MCA205 cells were purchased from ATTC, Bethesda, Md.; all cells were cultured in DMEM and grown to 100% confluency) and incubated while gently rotating at 37° C. for 3 hours with TBS buffer. The cells were then washed 10 times with TBS buffer and fixed with 4% paraformaldehyde at room temperature for 30 minutes. Cells were then washed 3 times with TBS buffer and stained with 1 mg/ml X-gal (Bochringer Mannheim, Indianapolis) at 37° C. overnight for β-gal-conjugated peptides. Cells which were blue indicated the presence of β-gal in the cells. For Cy3-conjugated peptides, fluorescence of the cells as measured by confocal microscopy indicated the ability of the peptide to internalize the Cy3 (a small molecule cargo).
# TAT-PTD (YGRKKRRQRRR; SEQ ID NO:21), and a random control peptide (ARPILEHGSDKAT; SEQ ID NO:20). […] In FIG. 1B, various concentrations of peptides linked to β-gal were tested (1:1=150 nM of β-gal).
# human dendritic cells = test: Internalization of peptide5-eGFP fusion protein, fluorescence; type: cell-based; conditions: peptide fused to eGFP; FIG. 9F-G
# Hig-82 cells [4] = test: Peptide competition assay for internalization of peptide-conjugated β-gal; type: cell-based, rabbit
# Experimental: A peptide competition assay was carried out to determine the relative efficiency and specificity of the various peptides. The peptides were conjugated to β-gal as described above in Example 4 and incubated with Hig-82 cells grown to 85% confluency in 24 well plates in the presence of non biotinylated peptides for 3 hours at 37° C. in TBS buffer while being gently rotated. The cells were then washed 10 times with TBS buffer, fixed with 4% paraformaldehyde at room temperature for 30 minutes, washed 3 times with TBS buffer, and stained with Xgal, as described above in Example 4, overnight. Cells which stained blue had internalized peptide-conjugated β-gal.
# human islets = test: Internalization of peptide5-eGFP fusion protein, fluorescence; type: cell-based; conditions: peptide fused to eGFP; FIG. 9B-E
# CD34+/LIN− stem cells = test: Transduction with biotin-peptide/avidin-β-gal complex; type: cell-based; conditions: FIG. 17
# Excerpt: Peptide 5 is biotin labeled and the β-gal is avidin labeled so that they may be linked together by an avidin/biotin interaction. The cells which stained dark were transduced with the peptide/β-gal complex as indicated by an arrow.
# rabbit synovial lining = test: In vivo transfer of peptide-conjugated β-gal after injection into rabbit knee
# Experimental: Peptide-β-gal complexes (fusions) were injected into rabbit knee synovial lining, the lining as then removed, washed with wash buffer, fixed with 4% paraformaldehyde, and stained with β-gal.
# as §2
# human synovial cells = test: Peptide-β-gal internalization, X-gal staining; type: cell-based; conditions: human (primary) synovial cells; FIG. 3, 6C
# Experimental: as §3, §4
# rabbit synovial cells = test: Peptide-β-gal internalization, X-gal staining; type: cell-based; conditions: rabbit (primary) synovial cells; FIG. 2, 6B
# Experimental: as §3, §4
# Hig-82 cells [5] = test: Internalization of peptide-streptavidin-488 complex, fluorescence and confocal microscopy; type: cell-based, rabbit
# Excerpt: See Bayer et al., Histochem. Cytochem. 24:933-939 (1976); Ivanenkov & Menon, Biochim. Biophys. Acta. 1448:463-472 (1999). The use of the 488 flourescent marker allows for analysis of the treated cells by confocal microscopy to determine the exact location of the complexes in the cells.
# NIH3T3 cells = test: Peptide-β-gal uptake, X-gal staining; type: cell-based, murine; conditions: FIG. 6I
# Experimental: as §4, with “Cells which were blue indicated the presence of β-gal in the cells.” left out, “cargo). […]” for “cargo).”
# [6] = tested on: HBE 144 primary human airway epithelial cells; test: Peptide-β-gal uptake, X-gal staining; type: cell-based; conditions: FIG. 6D
# Experimental: as §4
# (§5) FIG. 9A is a schematic representation of the expression construct encoding the peptide5-eGFP fusion protein.
# [7] = tested on: C2C12 murine myoblast cells; test: Peptide-β-gal uptake, X-gal staining; type: cell-based; conditions: FIG. 6G
# Experimental: as §4, §5
# [8] = tested on: MCA205 murine fibrosarcoma cells; test: Peptide-β-gal uptake, X-gal staining; type: cell-based; conditions: FIG. 6H
# Experimental: as §4, §5
# [9] = tested on: human β islet primary cells; test: Peptide-β-gal uptake, X-gal staining; type: cell-based; conditions: FIG. 6F
# Experimental: as §4, §5
# [10] = tested on: MDCK polarized canine kidney cells; test: Peptide-β-gal uptake, X-gal staining; type: cell-based; conditions: FIG. 6E
# Experimental: as §4, §5
# MCA205 tumors = test: Growth of MCA205 fibrosarcomas under daily intra-tumoral injection; type: in vivo; conditions: repeated administration
# Experimental: as §1
# [11] = FIG. 12, 100 fold excess of competitor
sequence,measurement,setting,value
KLAKLAKKLAKLAK (random peptide library),"cell viability (MTT, OD570)",HIG82 cells,did not impair viability
same,apoptosis of hyperplastic synovium,[1],did not
same,apoptosis in tumors (TUNEL staining),MCA205 fibrosarcomas,No TUNEL staining
RRQRRTSKLMKR (random peptide library) [peptide 5],"cell viability (MTT, OD570)",HIG82 cells,did not impair viability
same,β-gal staining / internalization in murine tumors in vivo,MCA 205 tumor cells,significant β-gal staining; also recorded: facilitate the internalization of β-gal into murine tumor cells in vivo
same,internalization of intact M13 phage (and nuclear localization of protein complexes),[2],detected in the treated cells
same,relative strength of internalization of β-gal (concentration needed),"Hig-82 cells [3]; FIG. 1B, various concentrations of peptide linked to β-gal, 1:1=150 nM of β-gal",effect internalization of β-gal linked thereto at a concentration equal to or less than TAT-PTD
same,uptake of β-gal,"Hig-82 cells [3]; FIG. 6A, HIG-82 cells",facilitate the uptake of β-gal
same,transduction/transfer activity of the peptide (in words),Hig-82 cells [3]; as summarised with CD spectra and competition data,highly active
same,internalization of eGFP,human dendritic cells,facilitate the internalization of EGFP in human dendritic cells
same,blocking of internalization of peptide-conjugated β-gal by non-biotinylated peptide,"Hig-82 cells [4]; FIG. 5, conjugates of peptide 2, 3, 4 and 5, 3 hours at 37° C.",blocked the internalization of peptide 2 through peptide 6-conjugated β-gal
same,inhibition of uptake of TAT-PTD and peptide 5 itself,Hig-82 cells [4]; [11],significantly inhibit
same,"inhibition of uptake of peptides 3, 4 and antennapedia peptide",Hig-82 cells [4]; [11],completely inhibit
same,internalization of eGFP,human islets,facilitate internalization of eGFP in human islets
same,transduction of stem cells with β-gal,CD34+/LIN− stem cells,transduce CD34+/LIN− stem cells
same,level of uptake of β-gal into rabbit synovial lining,"rabbit synovial lining; FIG. 4A, injection into rabbit knee, compared with adenoviral vector encoding β-gal",highest level of uptake
same,synovial cells with uptake of β-gal in vivo,"rabbit synovial lining; FIG. 4B, histology, eosin counter-stain",~100%
same,internalization of β-gal,human synovial cells,facilitate the internalization of β-gal into human synovial cells; also recorded: facilitate the uptake of β-gal
same,internalization of β-gal,rabbit synovial cells,facilitate the uptake of β-gal
same,internalization of streptavidin-488 complex,"Hig-82 cells [5]; FIG. 13A, biotinylated peptide coupled to streptavidin-488",efficient internalization
same,nuclear localization of peptide-streptavidin-488 complex,"Hig-82 cells [5]; FIG. 13B, confocal microscopy",significant percentage of the peptide-streptavidin-488 complex being found in the nucleus
same,uptake of β-gal,NIH3T3 cells,facilitate the uptake of β-gal
same,uptake of β-gal,[6],facilitate the uptake of β-gal
same,uptake of β-gal,[7],facilitate the uptake of β-gal
same,uptake of β-gal,[8],facilitate the uptake of β-gal
same,uptake of β-gal,[9],facilitate the uptake of β-gal
same,uptake of β-gal,[10],facilitate the uptake of β-gal
RRQRRTSKLMKRGGKLAKLAKKLAKLAK [death peptide],side-effects in treated mice,MCA205 tumors,no obvious side-effects
